# Key:
# Plasmodium falciparum = test: Antiplasmodial activity against Plasmodium falciparum 3D7 erythrocytic stage assessed as reduction in parasitic LDH activity measured after 48 hrs by colorimetric method; format: functional, organism-based; conditions: 3D7, 48 h
# [1] = Selectivity index, ratio of IC50 for human KB cells to IC50 for Plasmodium falciparum 3D7 erythrocytic stage; format: toxicity; conditions: KB cells versus Plasmodium falciparum 3D7 erythrocytic stage, read-out: Ratio IC50
# KB = test: Cytotoxicity against human KB cells after 72 hrs by CellTiter96 AQueous one solution assay; format: cell-based
Compound,IC50 (Plasmodium falciparum) [µM],selectivity ratio [1],IC50 (KB) [µM]
CC[C@@H]1C=CCC[C@]2(C[C@H]3CC[C@H]4[C@@H](C(=O)OCCCCCCCCCCCCCCCC5=NCCCN5CC(O)CCN)[C@@]5(CCC[C@H](C)O5)NC(=N2)N34)O1 (some centres undefined),0.24,4.9,1.17
CC[C@@H]1C=CCC[C@]2(C[C@H]3CC[C@H]4[C@@H](C(=O)OCCCCCCCCCCCCCCCC(=O)N(CCCCNC(=N)N)CCCNC(=N)N)[C@@]5(CCC[C@H](C)O5)NC(=N2)N34)O1,0.35,2.4,0.85
CC[C@@H]1C=CCC[C@]2(C[C@H]3CC[C@H]4[C@@H](C(=O)OCCCCCCCCCCCCCCCC(=O)N(CCCCNC(=N)N)CCCNC=O)[C@@]5(CCC[C@H](C)O5)NC(=N2)N34)O1,0.23,7,1.61
CCCCCCCCCCCCCCCC(=O)N(CCCCNC(=N)N)CCCNC(=N)N,12.9,0.6,7.66
CC[C@@H]1C=CCC[C@]2(C[C@H]3CC[C@H]4[C@@H](C(=O)OCCCCCCCCCCCCCCCC(=O)O)[C@@]5(CCC[C@H](C)O5)NC(=N2)N34)O1,,,8.8
C[C@@H]1CC[C@H]2[C@@H](C)C(=O)O[C@@H]3O[C@@]4(C)CC[C@@H]1[C@]32OO4 [ARTEMISININ],0.004,,

# Source: ChEMBL document CHEMBL4118022, “Unguiculin A and Ptilomycalins E-H, Antimalarial Guanidine Alkaloids from the Marine Sponge Monanchora unguiculata” (J Nat Prod, 2017)
